SMILES strings stand for the structures. Positions of bridges follow the written chain, without caps; N, C: chain ends. Non-standard residues stand in square brackets, D forms with d. Residues, ends and D or L forms follow the SMILES beside them. Phe(4-CONH2) = NC(=O)c1ccc(C[C@H](N)C(=O)O)cc1; Phe(4-CH2NH2) = NCc1ccc(C[C@H](N)C(=O)O)cc1; Bip = N[C@@H](Cc1ccc(-c2ccccc2)cc1)C(=O)O; Phe(3-F) = N[C@@H](Cc1cccc(F)c1)C(=O)O; NMeF = CN[C@@H](Cc1ccccc1)C(=O)O; Cha = N[C@@H](CC1CCCCC1)C(=O)O; hSer = N[C@@H](CCO)C(=O)O; NMeA = CN[C@@H](C)C(=O)O; Nle = CCCC[C@H](N)C(=O)O; Orn = NCCC[C@H](N)C(=O)O; Dab = NCC[C@H](N)C(=O)O; Sar = CNCC(=O)O

Data on eleven molecules can be found in patent US20240360178A1, “MACROCYCLIC IMMUNOMODULATORS” (Bristol-Myers Squibb Company, priority 2021, published 2024).

For this assay, the target named is T1, human PD-1 (Jurkat-PD-1 cells) / PE-labeled human PD-L1-Ig (Homo sapiens, UniProt Q15116).
T1 construct: expressed in transfected cells; host or cells: Jurkat cell line over-expressing human PD-1
T1 sequence (Q15116 25-288): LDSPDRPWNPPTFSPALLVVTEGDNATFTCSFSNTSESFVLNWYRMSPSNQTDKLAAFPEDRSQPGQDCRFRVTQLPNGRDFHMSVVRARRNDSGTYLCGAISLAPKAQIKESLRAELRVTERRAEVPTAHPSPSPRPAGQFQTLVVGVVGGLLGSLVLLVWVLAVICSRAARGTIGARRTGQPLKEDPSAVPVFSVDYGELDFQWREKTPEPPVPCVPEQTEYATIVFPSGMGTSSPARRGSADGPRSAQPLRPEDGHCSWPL
Nature of the assay: Jurkat-PD-1 Cell Binding High-Content Screening Assay (CBA); Jurkat hPD1-PDL1 assay. Conditions: Jurkat cell line over-expressing human PD-1; PE-labeled PD-L1-Ig 20 nM final; compound incubated 2 hours at 37° C.; read-out: Jurkat HPD1-PDL1 IC50. Summed up:
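Read-out is high-content imaging of PE fluorescence on PD-1-over-expressing Jurkat cells. Cells are first exposed to compound for 2 hours at 37° C in serum-containing DMEM, after which PE-labeled PD-L1-Ig is added at 20 nM final.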

Broadly, the IC50 is the concentration at which inhibition is half-maximal. Take `CC(C)C[C@@H]1NC(=O)[C@H](Cc2c[nH]c3ccccc23)NC(=O)[C@H](CC(=O)O)NC(=O)[C@H](Cc2cccc(F)c2)NC(=O)[C@H](Cc2ccccc2)NC(=O)CSC[C@@H](C(=O)N[C@@H](C)C(N)=O)NC(=O)[C@H](CO)NC(=O)[C@H](C(C)C)NC(=O)[C@H](CC(C)C)NC(=O)[C@H](CC(N)=O)NC(=O)[C@H]2CCCN2C(=O)[C@H](C)N(C)C(=O)[C@H](C(C)C)NC(=O)[C@H](Cc2ccc(-c3ccccc3)cc2)NC1=O` [Example 1047] ({CH2CO}-F[Phe(3-F)]DWL[Bip]V[NMeA][dP]NLVSCA-NH2; thioether N-14): the IC50 is 90 nM.

With `CC(C)C[C@@H]1NC(=O)[C@H](CCCN)NC(=O)[C@H](Cc2ccccc2)N(C)C(=O)[C@H](C)N(C)C(=O)[C@H](CCCNC(=N)N)NC(=O)[C@H](Cc2ccc(-c3ccccc3)cc2)NC(=O)[C@H](C(C)C)NC(=O)[C@H](Cc2c[nH]c3ccccc23)NC(=O)[C@H](CC(=O)O)NC(=O)[C@H](Cc2ccc(O)cc2)NC(=O)[C@H](CC(N)=O)NC(=O)CSC[C@@H](C(=O)N[C@@H](CO)C(N)=O)NC(=O)[C@H]([C@@H](C)O)NC(=O)[C@H](C(C)C)NC1=O` [Example 1353] ({CH2CO}-NYDWV[Bip]R[NMeA][NMeF][Orn]LVTCS-NH2; thioether N-14), the IC50 is 90 nM.

With `CC(C)C[C@@H]1NC(=O)[C@H](Cc2c[nH]c3ccccc23)NC(=O)[C@H](CC(=O)O)NC(=O)[C@H](Cc2ccc(CN)cc2)NC(=O)[C@H](Cc2ccccc2)NC(=O)CSC[C@@H](C(=O)N[C@@H](C)C(N)=O)NC(=O)[C@H](CO)NC(=O)[C@H](C(C)C)NC(=O)[C@H](CC(C)C)NC(=O)[C@H](CC(N)=O)NC(=O)[C@H]2CCCN2C(=O)[C@H](C)N(C)C(=O)[C@H](C(C)C)NC(=O)[C@H](Cc2ccc(-c3ccccc3)cc2)NC1=O` [Example 1040] ({CH2CO}-F[Phe(4-CH2NH2)]DWL[Bip]V[NMeA][dP]NLVSCA-NH2; thioether N-14), the IC50 was 70 nM.

On to `CCCC[C@@H]1NC(=O)[C@H](CC(N)=O)NC(=O)[C@H]2CCCN2C(=O)[C@H](C)N(C)C(=O)[C@H](C(C)C)NC(=O)[C@H](Cc2ccc(-c3ccccc3)cc2)NC(=O)[C@H](CC(C)C)NC(=O)[C@H](Cc2c[nH]c3ccccc23)NC(=O)[C@H](CC(=O)O)NC(=O)[C@H](Cc2ccc(O)cc2)NC(=O)[C@H](Cc2ccccc2)NC(=O)CSC[C@@H](C(=O)N[C@@H](C)C(N)=O)NC(=O)[C@H]([C@@H](C)O)NC(=O)[C@H](C(C)C)NC1=O` [Example 1097] ({CH2CO}-FYDWL[Bip]V[NMeA][dP]N[Nle]VTCA-NH2; thioether N-14), for which the IC50 came to 280 nM.

On to `CC(C)C[C@@H]1NC(=O)[C@H](Cc2c[nH]c3ccccc23)NC(=O)[C@H](CC(=O)O)NC(=O)[C@H](Cc2ccc(O)cc2)NC(=O)[C@H](CC(N)=O)NC(=O)CSC[C@@H](C(=O)N[C@@H](C)C(N)=O)NC(=O)[C@H](CO)NC(=O)[C@H](C(C)C)NC(=O)[C@H](CC(C)C)NC(=O)[C@H](CCN)NC(=O)[C@H]2CCCN2C(=O)[C@H](CCCN)NC(=O)[C@H](C(C)C)NC(=O)[C@H](Cc2ccc(-c3ccccc3)cc2)NC1=O` [Example 1401] ({CH2CO}-NYDWL[Bip]V[Orn][dP][Dab]LVSCA-NH2; thioether N-14), for which the 50% inhibitory concentration (IC50) amounted to 170 nM.

`CC(C)C[C@@H]1NC(=O)[C@H](CCCNC(=N)N)NC(=O)[C@H](Cc2ccccc2)N(C)C(=O)[C@@H](CCCCN)NC(=O)[C@H](CCCNC(=N)N)NC(=O)[C@H](Cc2ccc(-c3ccccc3)cc2)NC(=O)[C@H](C(C)C)NC(=O)[C@H](Cc2c[nH]c3ccccc23)NC(=O)[C@H](CC(=O)O)NC(=O)[C@H](Cc2ccc(O)cc2)NC(=O)[C@H](CC(N)=O)NC(=O)CSC[C@@H](C(=O)N[C@@H](C)C(N)=O)NC(=O)[C@H]([C@@H](C)O)NC(=O)[C@H](C(C)C)NC1=O` [Example 1369] ({CH2CO}-NYDWV[Bip]R[dK][NMeF]RLVTCA-NH2; thioether N-14): the IC50 came to 330 nM.

Regarding `CC(C)C[C@@H]1NC(=O)[C@H](Cc2c[nH]c3ccccc23)NC(=O)[C@H](CC(=O)O)NC(=O)[C@H](Cc2ccc(O)cc2)NC(=O)[C@H](Cc2ccccc2)NC(=O)CSC[C@@H](C(=O)N[C@@H](C)C(N)=O)NC(=O)[C@H](CCO)NC(=O)[C@H](C(C)C)NC(=O)[C@H](CC(C)C)NC(=O)[C@H](CC(N)=O)NC(=O)CN(C)C(=O)[C@H](C)N(C)C(=O)[C@H](C(C)C)NC(=O)[C@H](Cc2ccc(-c3ccccc3)cc2)NC1=O` [Example 1159] ({CH2CO}-FYDWL[Bip]V[NMeA][Sar]NLV[hSer]CA-NH2; thioether N-14), the IC50 was found to be 860 nM.

On to `CC(C)C[C@@H]1NC(=O)[C@H](CCCNC(=N)N)NC(=O)[C@H](Cc2ccccc2)N(C)C(=O)[C@H](C)N(C)C(=O)[C@H](CCCNC(=N)N)NC(=O)[C@H](Cc2ccc(-c3ccccc3)cc2)NC(=O)[C@H](C(C)C)NC(=O)[C@H](Cc2c[nH]c3ccccc23)NC(=O)[C@H](CC(=O)O)NC(=O)[C@H](Cc2ccc(O)cc2)NC(=O)[C@H](CC2CCCCC2)NC(=O)CSC[C@@H](C(=O)NCC(N)=O)NC(=O)[C@H](CO)NC(=O)[C@H](C(C)C)NC1=O` [Example 1248] ({CH2CO}-[Cha]YDWV[Bip]R[NMeA][NMeF]RLVSCG-NH2; thioether N-14), for which the IC50 worked out at 360 nM.

Consider `CC[C@H](C)[C@@H]1NC(=O)[C@H](Cc2ccc(-c3ccccc3)cc2)NC(=O)[C@H](CC(C)C)NC(=O)[C@H](Cc2c[nH]c3ccccc23)NC(=O)[C@H](CC(=O)O)NC(=O)[C@H](Cc2ccc(O)cc2)NC(=O)[C@H](Cc2ccccc2)NC(=O)CSC[C@@H](C(=O)NCC(N)=O)NC(=O)[C@H](CO)NC(=O)[C@H](C(C)C)NC(=O)[C@H](CC(C)C)NC(=O)[C@H](CC(N)=O)NC(=O)CN(C)C(=O)[C@H](C)N(C)C1=O` [Example 1133] ({CH2CO}-FYDWL[Bip]I[NMeA][Sar]NLVSCG-NH2; thioether N-14), for which the IC50 was 540 nM.

Regarding `CC(C)C[C@@H]1NC(=O)[C@H](Cc2c[nH]c3ccccc23)NC(=O)[C@H](CC(=O)O)NC(=O)[C@H](Cc2ccc(O)cc2)NC(=O)[C@H](Cc2ccccc2)NC(=O)CSC[C@@H](C(=O)N[C@@H](CO)C(N)=O)NC(=O)[C@H](CO)NC(=O)[C@H](C(C)C)NC(=O)[C@H](CC(C)C)NC(=O)[C@H](CC(N)=O)NC(=O)CN(C)C(=O)[C@H](C)N(C)C(=O)[C@H](C(C)C)NC(=O)[C@H](Cc2ccc(-c3ccccc3)cc2)NC1=O` [Example 1173] ({CH2CO}-FYDWL[Bip]V[NMeA][Sar]NLVSCS-NH2; thioether N-14), the IC50 turned out to be 950 nM.

Take `CC(C)C[C@@H]1NC(=O)[C@H](CCCNC(=N)N)NC(=O)[C@H](Cc2ccccc2)N(C)C(=O)[C@H](C)N(C)C(=O)[C@H](CCCNC(=N)N)NC(=O)[C@H](Cc2ccc(-c3ccccc3)cc2)NC(=O)[C@H](C(C)C)NC(=O)[C@H](Cc2c[nH]c3ccccc23)NC(=O)[C@H](CC(=O)O)NC(=O)[C@H](Cc2ccc(O)cc2)NC(=O)[C@H](Cc2ccc(C(N)=O)cc2)NC(=O)CSC[C@@H](C(=O)NCC(N)=O)NC(=O)[C@H](CO)NC(=O)[C@H](C(C)C)NC1=O` [Example 1257] ({CH2CO}-[Phe(4-CONH2)]YDWV[Bip]R[NMeA][NMeF]RLVSCG-NH2; thioether N-14): the IC50 is 80 nM.
